Series [1] in a line: In vitro stability in human plasma at 37° C. (enantiomerization and D/H exchange, chiral LC/MS-MS, kinetic fit). The class given is in vitro ADME. To be noted: for k, h+ → h− / k, h− → h+: enantiomerization rate constant, fit of the stability data of the protonated enantiomer. How it is done: The (+)-5-[(p-{[6-(4-amino-3,5-xylyloxy)-1-methyl-1,3-diaza-1H-inden-2-yl]methoxy}phenyl)methyl]-1,3-thiazolidine-2,4-dione, (−)-5-[(p-{[6-(4-amino-3,5-xylyloxy)-1-methyl-1,3-diaza-1H-inden-2-yl]methoxy}phenyl)methyl]-1,3-thiazolidine-2,4-dione, and rac-5-[(p-{[6-(4-amino-3,5-xylyloxy)-1-methyl-1,3-diaza-1H-inden-2-yl]methoxy}phenyl)methyl]-(5-^2H)-1,3-thiazolidine-2,4-dione were incubated in human plasma (K3EDTA as anticoagulant) at 37° C. in duplicates. […] It also contained ˜15% of the protonated enantiomers. Aliquots were removed at time=0, 5, 10, 15, 30 min, and 1, 2, 4, and 8 hours. Plasma proteins were precipitated by addition of acetonitrile containing cisapride as an internal standard (ISTD) and the supernatants were analyzed semi-quantitatively by LC/MS-MS with elution on a chiral column (Daicel ChiralPak IC-3) for the separation of enantiomers (isocratic method of 30:70 v/v 20 mM ammonium bicarbonate in water (pH=9.0) and acetonitrile). Peak areas for the deuterated enantiomers (+)-5-[(p-{[6-(4-amino-3,5-xylyloxy)-1-methyl-1,3-diaza-1H-inden-2-yl]methoxy}phenyl)methyl]-1,3-thiazolidine-2,4-dione and (−)-5-[(p-{[6-(4-amino-3,5-xylyloxy)-1-methyl-1,3-diaza-1H-inden-2-yl]methoxy}phenyl)methyl]-(5-^2H)-1,3-thiazolidine-2,4-dione were normalized to the ISTD and corrected for the isotopic peak of the corresponding protonated enantiomer, (+)-5-[(p-{[6-(4-amino-3,5-xylyloxy)-1-methyl-1,3-diaza-1H-inden-2-yl]methoxy}phenyl)methyl]-1,3-thiazolidine-2,4-dione and (−)-5-[(p-{[6-(4-amino-3,5-xylyloxy)-1-methyl-1,3-diaza-1H-inden-2-yl]methoxy}phenyl)methyl]-1,3-thiazolidine-2,4-dione, respectively, if present. Corrected data were analyzed and plotted using Microsoft Excel 2013 (Microsoft Corp, Redmond, Wash.) and the Excel Solver.
Scheme 1 illustrates possible reactions in a solution of a mixture of deuterated enantiomers when no degradation or side-reactions occur. The deuterium in both enantiomers, d+ and d−, can be lost by D/H exchange to give both protonated enantiomers, h+ and h− with rate constants kD++, kD+−, kD−+, kD−−, where D indicates D/H exchange, the first +/− represents the reagent, d+ or d−, and the second +/− stands for the product, h+ or h−. At the same time, the protonated enantiomers h+ and h− can exchange, with enantiomerization rate constants k+− and k−+.
Illustration of possible reactions and corresponding rate constants in a solution of rac-5-[(p-{[6-(4-amino-3,5-xylyloxy)-1-methyl-1,3-diaza-1H-inden-2-yl]methoxy}phenyl)methyl]-(5-^2H)-1,3-thiazolidine-2,4-dione where d+, d−, h+, h− stand for […] and (−)-5-[(p-{[6-(4-amino-3,5-xylyloxy)-1-methyl-1,3-diaza-1H-inden-2-yl]methoxy}phenyl)methyl]-(5-^2H)-1,3-thiazolidine-2,4-dione and (+)- and (−)-5-[(p-{[6-(4-amino-3,5-xylyloxy)-1-methyl-1,3-diaza-1H-inden-2-yl]methoxy}phenyl)methyl]-1,3-thiazolidine-2,4-dione, respectively.
Independent analyses of the data for h+ and h− were performed first and the average rate constants k+− and k−+ from these two fits were calculated and used as constants in the fitting of the stability data of the deuterated racemate. Calculated concentrations were obtained through numerical approximation of differential equations (1) and (2) for the stability studies of h+ and h− and equations (3) to (6) for the stability study of the enantiomeric mixture of deuterated d+ and d− by the Euler method (equation (7)). The step between calculated time points was minimized in order to minimize the local error (proportional to the square of the step size) and the global error (proportional to the step size). Data analysis was performed in Microsoft Excel 2013, using the Solver Generalized Reduced Gradient Nonlinear method with central derivatives to minimize the sum of sums of weighted Δ^2, square of difference between ISTD-normalized experimental data and calculated value, divided by the experimental data. […]

Series [2] concerns the target T1, peroxisome proliferator-activated receptor gamma (PPARγ) (Homo sapiens, UniProt P37231).
T1 construct: label (kind not specified); Cerep (France), contract assay
Nature of the series: TRAP220 PPARγ coactivator recruitment assay (Cerep). The class given is biochemical. To be noted: for pEC50: TRAP220 coactivator recruitment, percent of control (10 μM rosiglitazone), four-parameter fit, read-out: EC50, PPARγ agonist activity. How it is done:
The agonist activity of (+)- and (−)-5-[(p-{[6-(4-amino-3,5-xylyloxy)-1-methyl-1,3-diaza-1H-inden-2-yl]methoxy}phenyl)methyl]-(5-^2H)-1,3-thiazolidine-2,4-dione at the peroxisome proliferator-activated receptor gamma (PPARγ) was evaluated in the thyroid receptor-associated protein complex, 220 kDa component (TRAP220) PPARγ coactivator recruitement assay performed at Cerep (France). Briefly, a mixture of labeled PPARγ and TRAP220 coactivator was pre-incubated with a fluorescence acceptor at room temperature for 30 minutes in the presence of a fluorescence acceptor and the test compound. A fluorescence donor was then added and the mixture was incubated for 120 minutes at room temperature. The fluorescence signal was measured and results expressed as a percent of control (10 μM rosiglitazone). A dose response curve was generated for each enantiomer and the experimental data was analyzed using the log(agonist) vs. response−variable slope (four parameters) nonlinear model in GraphPad Prism 6.0 (GraphPad Software, Inc., La Jolla, Calif.).

[3] abbreviates: D/H exchange rate constant, mixture of d− and d+ in human plasma at 37° C., fit to Equations 1 to 6.
Setting [4] is: average of enantiomerization rate constants obtained by fitting data for h− and h+, human plasma at 37° C.

The values that follow come from patent publication US20140221369A1, “5-DEUTERO-2,4-THIAZOLIDINEDIONE AND 5-DEUTERO-2,4-OXAZOLIDINEDIONE DERIVATIVES AND COMPOSITIONS COMPRISING AND METHODS OF USING THE SAME” (DeuteRx, LLC, priority 2013, published 2014).

Usually pEC50 stands for the negative decadic logarithm of the EC50, by convention in mol/L.

pEC50: −log10 of the molar value.

T1 sequence (P37231 whole entry): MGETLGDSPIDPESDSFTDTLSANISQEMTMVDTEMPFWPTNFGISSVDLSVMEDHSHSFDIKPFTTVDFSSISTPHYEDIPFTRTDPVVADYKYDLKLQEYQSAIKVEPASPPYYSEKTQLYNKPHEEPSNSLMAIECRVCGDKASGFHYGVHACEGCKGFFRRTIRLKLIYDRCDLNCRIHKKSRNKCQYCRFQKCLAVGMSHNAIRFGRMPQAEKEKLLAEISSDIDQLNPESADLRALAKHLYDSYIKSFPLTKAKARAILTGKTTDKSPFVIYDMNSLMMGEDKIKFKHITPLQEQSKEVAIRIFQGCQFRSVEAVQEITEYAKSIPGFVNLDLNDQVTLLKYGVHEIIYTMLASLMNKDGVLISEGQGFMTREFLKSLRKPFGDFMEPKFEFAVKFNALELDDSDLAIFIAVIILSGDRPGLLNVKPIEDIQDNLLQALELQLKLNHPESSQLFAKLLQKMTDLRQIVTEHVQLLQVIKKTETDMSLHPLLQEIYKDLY
T1 sequence (Q15648 whole entry partner): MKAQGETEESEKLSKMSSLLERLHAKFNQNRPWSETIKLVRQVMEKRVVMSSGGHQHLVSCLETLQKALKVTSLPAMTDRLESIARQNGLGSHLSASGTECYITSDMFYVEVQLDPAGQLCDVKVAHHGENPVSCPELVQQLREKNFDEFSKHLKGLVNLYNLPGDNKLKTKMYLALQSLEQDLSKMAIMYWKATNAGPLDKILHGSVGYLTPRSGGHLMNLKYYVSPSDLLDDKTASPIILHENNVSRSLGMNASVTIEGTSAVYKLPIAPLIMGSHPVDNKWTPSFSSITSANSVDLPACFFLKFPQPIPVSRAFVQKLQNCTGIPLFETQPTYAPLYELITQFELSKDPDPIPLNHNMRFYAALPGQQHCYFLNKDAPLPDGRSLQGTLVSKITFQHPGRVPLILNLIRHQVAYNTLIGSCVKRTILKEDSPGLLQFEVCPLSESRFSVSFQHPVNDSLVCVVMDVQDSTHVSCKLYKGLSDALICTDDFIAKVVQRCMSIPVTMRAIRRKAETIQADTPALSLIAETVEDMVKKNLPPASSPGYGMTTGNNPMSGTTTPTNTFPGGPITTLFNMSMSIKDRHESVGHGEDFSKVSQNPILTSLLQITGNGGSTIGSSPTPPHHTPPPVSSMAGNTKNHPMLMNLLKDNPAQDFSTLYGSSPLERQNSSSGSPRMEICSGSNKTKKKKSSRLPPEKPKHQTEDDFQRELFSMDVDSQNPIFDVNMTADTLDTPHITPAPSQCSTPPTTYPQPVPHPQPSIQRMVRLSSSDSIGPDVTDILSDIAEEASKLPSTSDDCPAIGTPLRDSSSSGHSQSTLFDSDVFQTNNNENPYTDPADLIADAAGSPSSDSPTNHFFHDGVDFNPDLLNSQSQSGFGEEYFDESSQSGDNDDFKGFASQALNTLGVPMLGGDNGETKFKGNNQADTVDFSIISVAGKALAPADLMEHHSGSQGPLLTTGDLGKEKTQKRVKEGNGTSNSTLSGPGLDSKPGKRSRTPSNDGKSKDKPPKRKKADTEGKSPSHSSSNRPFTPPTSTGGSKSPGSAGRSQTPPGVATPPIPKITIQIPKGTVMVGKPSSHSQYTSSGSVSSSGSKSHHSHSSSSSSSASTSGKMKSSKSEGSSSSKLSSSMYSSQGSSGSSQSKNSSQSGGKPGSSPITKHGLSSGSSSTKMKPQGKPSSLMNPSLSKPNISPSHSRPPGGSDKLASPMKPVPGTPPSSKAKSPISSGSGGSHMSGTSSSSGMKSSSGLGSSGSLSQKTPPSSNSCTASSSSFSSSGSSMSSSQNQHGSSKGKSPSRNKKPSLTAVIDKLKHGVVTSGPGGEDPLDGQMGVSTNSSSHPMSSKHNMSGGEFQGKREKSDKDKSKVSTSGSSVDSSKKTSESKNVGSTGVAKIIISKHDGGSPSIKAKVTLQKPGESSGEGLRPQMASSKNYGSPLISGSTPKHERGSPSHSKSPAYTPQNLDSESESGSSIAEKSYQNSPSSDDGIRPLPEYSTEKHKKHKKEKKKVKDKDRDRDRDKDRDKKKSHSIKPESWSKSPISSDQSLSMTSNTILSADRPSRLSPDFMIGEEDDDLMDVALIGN

Turning to `[2H]C1(Cc2ccc(OCc3nc4ccc(Oc5cc(C)c(N)c(C)c5)cc4n3C)cc2)SC(=O)NC1=O` (racemic) [d−/d+, rac-5-[(p-{[6-(4-amino-3,5-xylyloxy)-1-methyl-1,3-diaza-1H-inden-2-yl]methoxy}phenyl)methyl]-(5-^2H)-1,3-thiazolidine-2,4-dione], in series [1] (setting [3]), the “k, d+ → h+” value was 0 h⁻¹; the “k, d+ → h−” value is 0.300 h⁻¹; the “k, d− → h+” value is 0.211 h⁻¹; the “k, d− → h−” value turned out to be 0.499 h⁻¹. In series [1] (setting [4]), the “k, h+ → h− (average used in analysis of the deuterated mixture)” value came to 0.802 h⁻¹ and the “k, h− → h+ (average used in analysis of the deuterated mixture)” value was found to be 0.668 h⁻¹.
As to `Cc1cc(Oc2ccc3nc(COc4ccc(CC5SC(=O)NC5=O)cc4)n(C)c3c2)cc(C)c1N` (single isomer, unassigned; (+)) [d+, (+)-5-[(p-{[6-(4-amino-3,5-xylyloxy)-1-methyl-1,3-diaza-1H-inden-2-yl]methoxy}phenyl)methyl]-(5-^2H)-1,3-thiazolidine-2,4-dione], in series [2] (ratio of EC50), the “potency relative to the (−) enantiomer d− (fold less potent)” value is recorded as 7 fold.
As to `[2H]C1(Cc2ccc(OCc3nc4ccc(Oc5cc(C)c(N)c(C)c5)cc4n3C)cc2)SC(=O)NC1=O` (single isomer, unassigned; (+)) [d+, (+)-5-[(p-{[6-(4-amino-3,5-xylyloxy)-1-methyl-1,3-diaza-1H-inden-2-yl]methoxy}phenyl)methyl]-(5-^2H)-1,3-thiazolidine-2,4-dione], in series [1] (human plasma at 37° C.), the “stability of d+ relative to h+” value was 2-3 fold. In series [2], the pEC50 was 7.31.
As to `Cc1cc(Oc2ccc3nc(COc4ccc(CC5SC(=O)NC5=O)cc4)n(C)c3c2)cc(C)c1N` (single isomer, unassigned; (+)) [h+, (+)-5-[(p-{[6-(4-amino-3,5-xylyloxy)-1-methyl-1,3-diaza-1H-inden-2-yl]methoxy}phenyl)methyl]-1,3-thiazolidine-2,4-dione, reference compound], in series [1] (human plasma at 37° C.), the “k, h+ → h−” value was 0.803 h⁻¹ and the “k, h− → h+” value is 0.665 h⁻¹.
For the molecule `[2H]C1(Cc2ccc(OCc3nc4ccc(Oc5cc(C)c(N)c(C)c5)cc4n3C)cc2)SC(=O)NC1=O` (single isomer, unassigned; (-)) [d−, (−)-5-[(p-{[6-(4-amino-3,5-xylyloxy)-1-methyl-1,3-diaza-1H-inden-2-yl]methoxy}phenyl)methyl]-(5-^2H)-1,3-thiazolidine-2,4-dione], in series [1] (human plasma at 37° C.), the “stability of d− relative to h−” value is “not more stable than h−”. In addition, in series [2], the negative logarithm of the EC50 (pEC50) was 8.13.
In the case of `Cc1cc(Oc2ccc3nc(COc4ccc(CC5SC(=O)NC5=O)cc4)n(C)c3c2)cc(C)c1N` (single isomer, unassigned; (-)) [h−, (−)-5-[(p-{[6-(4-amino-3,5-xylyloxy)-1-methyl-1,3-diaza-1H-inden-2-yl]methoxy}phenyl)methyl]-1,3-thiazolidine-2,4-dione, reference compound], in series [1] (human plasma at 37° C.), the “k, h+ → h−” value amounted to 0.800 h⁻¹ and the “k, h− → h+” value was 0.671 h⁻¹.
